Experimental data reported in patent publication US20250221988A1 (Cullgen (Shanghai), Inc., priority 2022, published 2025).
Each block holds one compound with its values, some of them ahead of it.

Columns and labels:
[1] = test system: MOLM-13 cells; assay: Cell viability assay (CellTiter-Glo) in MOLM-13 cells; type: cell-based; conditions: Homo sapiens, 72 h; MOLM-13 cells, compound alone, three days; read-out: MOLM-13 IC50
[2] = test system: NCI-H1155 cells; assay: Cell viability assay in NCI-H1155 cells; type: cell-based; conditions: Homo sapiens, read-out: NCI-H115 IC50
Description: (§1) Cell Culture: RS4;11, MV4;11, MOLM-13 and other cells were cultured at 37° C. with 5% CO2 in RPMI 1640 or DMEM Medium supplemented with 10% fetal bovine serum. Cells were authenticated using the short tandem repeat (STR) assays. Mycoplasma test results were negative.
(§2) Cell viability assays: Cells were seeded at a density of 5000 cells per well in 96-well assay plates and treated with test compounds following a 8-point or 12-point 3-fold serial dilution. Three days later, cell viability was determined using the CellTiter-Glo assay kit according to the manufacturer's instructions. The dose-response curves were determined and IC50 values were calculated using the GraphPad Prism software following a nonlinear regression (least squares fit) method.
(§3) The compounds were tested in HEL, 22RV1, NCI-H82 or NCI-H1155 cells.

[3] = target: T1, GSPT1 (Homo sapiens, UniProt P15170+Q96SW2); assay: Immunoblotting of GSPT1 in MOLM-13 cells; type: cell-based; set-up: endogenous in cells; host or cells: MOLM-13; conditions: indicated concentrations, 16 hours
Description: as §1
Antibodies and reagents: Rabbit anti-FLT3 antibody (3462S) was purchased from Cell Signaling Technology. Rabbit anti-GSPT1 antibody (ab126090) was purchased from Abeam. HRP-conjugated anti-α-tubulin antibody was produced in house. Media and other cell culture reagents were purchased from Thermo Fisher. The CellTiter-Glo Luminescent Assay kit was purchased from Promega.
Immunoblotting: Cultured cells were washed with cold PBS once and lysed in cold RIPA buffer supplemented with protease inhibitors and phosphatase inhibitors (Beyotime Biotechnology). The solutions were then incubated at 4° C. for 30 minutes with gentle agitation to fully lyse cells. Cell lysates were centrifuged at 13,000 rpm for 10 minutes at 4° C. and pellets were discarded. Total protein concentrations in the lysates were determined by BCA assays (Beyotime Biotechnology). Cell lysates were mixed with Laemmli loading buffer to 1× and heated at 99° C. for 5 min. Proteins were resolved on SDS-PAGE and visualized by chemiluminescence. Images were taken by a ChemiDoc MP Imaging system (Bio-Rad). Protein bands were quantitated using the accompanied software provided by Bio-Rad.

[4] = test system: tested cell lines; conditions: Matyskiela, Lu et al. 2016; cited from earlier work
[5] = target: T1, GSPT1; set-up: MOLM-13 cells were treated at indicated concentrations with compounds GS-729, GS-731, GS-697, and GS-788 for 16 hours prior to immunoblotting; endogenous in cells; host or cells: MOLM-13; conditions: Matyskiela, Lu et al. 2016; cited from earlier work
[6] = test system: NCI-H82 cells; assay: Cell viability assay in NCI-H82 cells; type: cell-based; conditions: Homo sapiens
Description: as §1, §2, §3

[7] = test system: HEL cells; assay: Cell viability assay in HEL cells; type: cell-based; conditions: Homo sapiens
Description: as §1, §2, §3

[8] = test system: 22RV1 cells; assay: Cell viability assay in 22RV1 cells; type: cell-based; conditions: Homo sapiens
Description: as §1, §2, §3

T1 sequence (P15170 whole entry): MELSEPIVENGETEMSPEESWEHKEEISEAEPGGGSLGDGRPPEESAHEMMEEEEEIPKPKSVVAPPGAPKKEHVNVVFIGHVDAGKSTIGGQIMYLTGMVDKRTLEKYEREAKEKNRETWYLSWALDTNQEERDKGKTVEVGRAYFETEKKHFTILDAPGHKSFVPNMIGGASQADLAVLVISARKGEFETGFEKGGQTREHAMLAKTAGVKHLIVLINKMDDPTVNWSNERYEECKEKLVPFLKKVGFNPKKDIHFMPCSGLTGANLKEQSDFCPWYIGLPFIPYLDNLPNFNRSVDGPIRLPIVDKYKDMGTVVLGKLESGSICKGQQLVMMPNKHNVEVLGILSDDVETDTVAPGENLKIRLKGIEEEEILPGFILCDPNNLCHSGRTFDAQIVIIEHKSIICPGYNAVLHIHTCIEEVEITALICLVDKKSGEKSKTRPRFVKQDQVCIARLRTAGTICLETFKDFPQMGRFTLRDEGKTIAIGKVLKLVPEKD
T1 sequence (Q96SW2 whole entry): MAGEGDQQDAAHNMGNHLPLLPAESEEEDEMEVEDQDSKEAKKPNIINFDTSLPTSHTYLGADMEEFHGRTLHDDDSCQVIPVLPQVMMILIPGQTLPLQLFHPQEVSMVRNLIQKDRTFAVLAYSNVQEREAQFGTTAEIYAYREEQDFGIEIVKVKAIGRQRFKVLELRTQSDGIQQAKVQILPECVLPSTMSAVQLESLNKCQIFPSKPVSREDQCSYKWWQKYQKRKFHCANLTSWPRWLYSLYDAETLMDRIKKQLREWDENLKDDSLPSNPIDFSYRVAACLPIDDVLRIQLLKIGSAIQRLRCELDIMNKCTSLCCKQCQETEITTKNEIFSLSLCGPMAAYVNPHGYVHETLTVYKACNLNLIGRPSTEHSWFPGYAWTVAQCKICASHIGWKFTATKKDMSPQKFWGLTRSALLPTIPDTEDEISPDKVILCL
T1 sequence (Q16531 whole entry partner): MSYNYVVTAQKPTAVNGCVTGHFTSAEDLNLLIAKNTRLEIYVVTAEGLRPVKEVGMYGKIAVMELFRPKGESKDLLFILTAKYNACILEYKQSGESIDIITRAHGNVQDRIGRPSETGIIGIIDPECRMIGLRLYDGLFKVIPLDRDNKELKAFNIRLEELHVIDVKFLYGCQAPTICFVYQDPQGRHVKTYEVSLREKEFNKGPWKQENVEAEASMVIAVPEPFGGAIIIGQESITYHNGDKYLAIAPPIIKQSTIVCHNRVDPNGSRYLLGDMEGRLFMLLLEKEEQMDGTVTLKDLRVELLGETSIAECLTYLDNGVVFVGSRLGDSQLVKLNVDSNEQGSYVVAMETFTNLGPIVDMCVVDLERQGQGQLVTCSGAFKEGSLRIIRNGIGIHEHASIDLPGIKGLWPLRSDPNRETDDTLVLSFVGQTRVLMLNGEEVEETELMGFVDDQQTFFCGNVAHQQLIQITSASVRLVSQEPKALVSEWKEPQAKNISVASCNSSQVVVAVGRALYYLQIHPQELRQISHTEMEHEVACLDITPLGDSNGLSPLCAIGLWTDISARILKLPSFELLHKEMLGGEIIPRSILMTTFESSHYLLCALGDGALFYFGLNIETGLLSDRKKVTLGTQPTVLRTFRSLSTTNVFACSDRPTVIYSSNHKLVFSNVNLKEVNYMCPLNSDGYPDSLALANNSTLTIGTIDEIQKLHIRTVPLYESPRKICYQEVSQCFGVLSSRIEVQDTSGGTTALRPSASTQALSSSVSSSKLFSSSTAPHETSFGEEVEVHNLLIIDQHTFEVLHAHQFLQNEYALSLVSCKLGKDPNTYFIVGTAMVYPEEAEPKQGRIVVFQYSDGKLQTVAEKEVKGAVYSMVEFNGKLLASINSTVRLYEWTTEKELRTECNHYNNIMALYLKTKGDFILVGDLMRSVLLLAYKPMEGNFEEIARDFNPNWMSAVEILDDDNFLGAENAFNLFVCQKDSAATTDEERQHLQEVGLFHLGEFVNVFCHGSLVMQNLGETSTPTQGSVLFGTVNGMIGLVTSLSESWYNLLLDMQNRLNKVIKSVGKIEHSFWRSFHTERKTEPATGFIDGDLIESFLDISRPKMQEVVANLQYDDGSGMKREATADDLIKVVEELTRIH

SMILES: O=C1CCC(N2Cc3cc(NC[C@H]4C[C@H](n5cc(-c6ccc(F)c(C(F)(F)F)n6)c(C6CC6)n5)C4)ccc3C2=O)C(=O)N1 (stereo partly drawn) [GS-803, 3-(5-(((Trans-3-(3-cyclopropyl-4-(5-fluoro-6-(trifluoromethyl)pyridin-2-yl)-1H-pyrazol-1-yl)cyclobutyl)methyl)amino)-1-oxoisoindolin-2-yl)piperidine-2,6-dione]
IC50 [1]: < 0.01 µM
IC50 [2]: < 0.01 µM
small molecule-mediated targeted degradation of GSPT1 [3]: targeted degradation of GSPT1

SMILES: Cc1ccc(NC(=O)NCc2ccc3c(c2)CN(C2CCC(=O)NC2=O)C3=O)cc1Cl (stereo not drawn) [CC-885]
toxicity in tested cell lines [4]: induced significant toxicity in the vast majority of tested cell lines
cereblon-dependent degradation of GSPT1 [5]: led to cereblon-dependent degradation of GSPT1

IC50 [6]: < 0.01 µM
SMILES: Cc1nc(-c2cn([C@H]3C[C@H](CNc4ccc5c(c4)CN(C4CCC(=O)NC4=O)C5=O)C3)nc2C2CC2)c(Cl)cc1F (stereo partly drawn) [GS-812]

SMILES: Cc1ccc(Cl)c(-c2cn([C@H]3C[C@H](CNc4ccc5c(c4)CN(C4CCC(=O)NC4=O)C5=O)C3)nc2C2CC2)n1 (stereo partly drawn) [GS-805, 3-(5-(((Trans-3-(4-(3-chloro-6-methylpyridin-2-yl)-3-cyclopropyl-1H-pyrazol-1-yl)cyclobutyl)methyl)amino)-1-oxoisoindolin-2-yl)piperidine-2,6-dione]
IC50 [7]: < 0.01 µM

SMILES: Cc1ccc(F)c(-c2cn([C@H]3C[C@H](CNc4ccc5c(c4)CN(C4CCC(=O)NC4=O)C5=O)C3)nc2C2CC2)n1 (stereo partly drawn) [GS-807, 3-(5-(((Trans-3-(3-cyclopropyl-4-(3-fluoro-6-methylpyridin-2-yl)-1H-pyrazol-1-yl)cyclobutyl)methyl)amino)-1-oxoisoindolin-2-yl)piperidine-2,6-dione]
IC50 [7]: < 0.01 µM
IC50 [8]: < 0.01 µM
IC50 [6]: < 0.01 µM

IC50 [1]: < 0.01 µM
IC50 [8]: < 0.01 µM
IC50 [6]: < 0.01 µM
SMILES: Cc1nc(-c2cn([C@H]3C[C@H](CNc4ccc5c(c4)CN([C@H]4CCC(=O)NC4=O)C5=O)C3)nc2C2CC2)ccc1F [GS-800, (S)-3-(5-(((trans-3-(3-cyclopropyl-4-(5-fluoro-6-methylpyridin-2-yl)-1H-pyrazol-1-yl)cyclobutyl)methyl)amino)-1-oxoisoindolin-2-yl)piperidine-2,6-dione]
IC50 [7]: 0.01 to 0.1 µM

SMILES: CNc1nc(-c2cn([C@H]3C[C@H](CNc4ccc5c(c4)CN(C4CCC(=O)NC4=O)C5=O)C3)nc2C2CC2)ccc1F (stereo partly drawn) [GS-808, 3-(5-(((Trans-3-(3-cyclopropyl-4-(5-fluoro-6-(methylamino)pyridin-2-yl)-1H-pyrazol-1-yl)cyclobutyl)methyl)amino)-1-oxoisoindolin-2-yl)piperidine-2,6-dione]
IC50 [6]: < 0.01 µM
